The values that follow come from patent publication US11504367B2, “Compounds and methods for treating oxalate-related diseases” (OxaluRx, Inc., priority 2019, dated 2022).

Each structure is given as a SMILES string.

For the assay, the target named is recombinant full-length human hydroxyacid oxidase 1 (HAO1), the equivalents of hGOX (Homo sapiens (Human), UniProt Q9UJM8). The assay is described as follows: In-vitro human glycolate oxidase (hGOX) assay (Amplex red fluorescence). Particulars: 6 nM recombinant human GO, 85 μM glycolate, 10 min preincubation. It is filed as biochemical. The method, then:
The in-vitro glycolate oxidase assay was performed using recombinant full-length human hydroxyacid oxidase 1 (HAO1), the equivalents of hGOX. […] Purified HAO1 was dissolved in assay buffer consisting of 10 mM NaCl, 110 mM KCl, 2 mM MgCl2, 50 mM HEPES (pH 7.4), and 0.01% Triton™ X-100.
The plates were incubated for 10 min at room temperature, at which point Amplex red reagent (50 μM) was added.
The fluorescence intensity signal was measured on a VariosKan LUX instrument using an excitation of 560 nm and an emission of 590 nm. The IC50 values were calculated using Graphpad Prism. The fluorescence signal of wells containing only DMSO was defined as 100% GO activity, while the fluorescence signal without the glycolate substrate was defined as 0% GO activity.

Chain of recombinant full-length human hydroxyacid oxidase 1 (HAO1), the equivalents of hGOX (Q9UJM8 whole entry): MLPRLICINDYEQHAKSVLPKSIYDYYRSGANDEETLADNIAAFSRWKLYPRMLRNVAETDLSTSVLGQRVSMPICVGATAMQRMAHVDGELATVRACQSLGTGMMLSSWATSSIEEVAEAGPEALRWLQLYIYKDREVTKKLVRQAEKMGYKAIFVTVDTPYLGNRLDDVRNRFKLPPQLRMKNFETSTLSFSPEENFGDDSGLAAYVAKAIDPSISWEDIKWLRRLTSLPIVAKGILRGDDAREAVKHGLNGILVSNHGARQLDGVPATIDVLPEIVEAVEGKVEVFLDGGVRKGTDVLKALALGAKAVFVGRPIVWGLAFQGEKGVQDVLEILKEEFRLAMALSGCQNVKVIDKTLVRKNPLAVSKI

On to `O=C(O)c1nn[nH]c1Oc1cccc(C#Cc2cccnn2)c1` [Example 340, 5-(3-(2-(Pyridazin-3-yl)ethynyl)phenoxy)-1H-1,2,3-triazole-4-carboxylic Acid], for which the IC50 was 3 nM.

Turning to `CS(=O)(=O)c1ccc(Oc2[nH]nnc2C(=O)O)cc1C#Cc1ccccc1` [Example 149, 5-(4-(Methylsulfonyl)-3-(2-phenylethynyl)phenoxy)-1H-1,2,3-triazole-4-carboxylic Acid], the IC50 was determined as 14 nM.

Regarding `O=C(O)c1nn[nH]c1Oc1ccc(C#Cc2ccccc2)cc1` [Example 138, 5-(4-(2-Phenylethynyl)phenoxy)-1H-1,2,3-triazole-4-carboxylic Acid], the 50% inhibitory concentration (IC50) was 7 nM.

As for `Cn1cc(C#Cc2ccc(Oc3[nH]nnc3C(=O)O)cc2)cn1` [Example 220, 5-(4-(2-(1-Methyl-1H-pyrazol-4-yl)ethynyl)phenoxy)-1H-1,2,3-triazole-4-carboxylic Acid], the IC50 came out at 4 nM.

Regarding `O=C(O)c1nn[nH]c1Oc1cccc(C#Cc2ccccn2)c1` [Example 311, 5-(3-(2-(Pyridin-2-yl)ethynyl)phenoxy)-1H-1,2,3-triazole-4-carboxylic Acid], the IC50 amounted to 3 nM.

Turning to `O=C(O)c1nn[nH]c1Oc1ccc(C#Cc2ccc3[nH]ncc3c2)cc1` [Example 108, 5-(4-(2-(1H-Indazol-5-yl)ethynyl)phenoxy)-1H-1,2,3-triazole-4-carboxylic Acid], the IC50 came to 1 nM.

Consider `CS(=O)(=O)c1cccc(C#Cc2ccc(Oc3[nH]nnc3C(=O)O)cc2)c1` [Example 254, 5-(4-(2-(3-(Methylsulfonyl)phenyl)ethynyl)phenoxy)-1H-1,2,3-triazole-4-carboxylic Acid], for which the IC50 was determined as 3 nM.

For `O=C(O)c1nn[nH]c1Oc1cccc(C#Cc2ncccn2)c1` [Example 165, 5-(3-(2-(Pyrimidin-2-yl)ethynyl)phenoxy)-1H-1,2,3-triazole-4-carboxylic Acid], the IC50 was found to be 6 nM.

Turning to `Cn1ccnc1C#Cc1ccc(Oc2[nH]nnc2C(=O)O)cc1` [Example 333, 5-(4-(2-(1-Methyl-1H-imidazol-2-yl)ethynyl)phenoxy)-1H-1,2,3-triazole-4-carboxylic Acid], the IC50 was determined as 10 nM.

`CS(=O)(=O)c1cccc(C#Cc2ccc(Oc3[nH]nnc3C(=O)O)cc2F)c1` [Example 273, 5-(3-Fluoro-4-(2-(3-(methylsulfonyl)phenyl)ethynyl)phenoxy)-1H-1,2,3-triazole-4-carboxylic Acid]: the half-maximal inhibitory concentration (IC50) was found to be 2 nM.

For the compound `O=C(O)c1nn[nH]c1Oc1cccc(C#Cc2cccc(F)c2)c1` [Example 279, 5-(3-(2-(3-Fluorophenyl)ethynyl)phenoxy)-1H-1,2,3-triazole-4-carboxylic Acid], the IC50 stood at 2 nM.

Regarding `N#Cc1ccc(C#Cc2ccc(Oc3[nH]nnc3C(=O)O)cc2F)cc1` [Example 269, 5-(4-((4-Cyanophenyl)ethynyl)-3-fluorophenoxy)-1H-1,2,3-triazole-4-carboxylic Acid], the IC50 is 1 nM.

With `Cc1ccc(C#Cc2ccc(Oc3[nH]nnc3C(=O)O)cc2)cn1` [Example 297, 5-(4-(2-(6-Methylpyridin-3-yl)ethynyl)phenoxy)-1H-1,2,3-triazole-4-carboxylic Acid], the IC50 stood at 3 nM.

Consider `O=C(O)c1nn[nH]c1Oc1cccc(C#Cc2cn[nH]c2)c1` [Example 320, 5-(3-(2-(1H-Pyrazol-4-yl)ethynyl)phenoxy)-1H-1,2,3-triazole-4-carboxylic Acid], for which the half-inhibitory concentration (IC50) stood at 6 nM.

As for `O=C(O)c1nn[nH]c1Oc1cccc(C#Cc2cnccn2)c1` [Example 338, 5-(3-(2-(Pyrazin-2-yl)ethynyl)phenoxy)-1H-1,2,3-triazole-4-carboxylic Acid], the IC50 came to 4 nM.

Regarding `O=C(O)c1nn[nH]c1Oc1ccc(Cl)c(C#Cc2ccccc2)c1` [Example 147, 5-(4-Chloro-3-(2-phenylethynyl)phenoxy)-1H-1,2,3-triazole-4-carboxylic Acid], the IC50 is 4 nM.

For `CS(=O)(=O)c1cccc(C#Cc2cccc(Oc3[nH]nnc3C(=O)O)c2)c1` [Example 191, 5-(3-(2-(3-(Methylsulfonyl)phenyl)ethynyl)phenoxy)-1H-1,2,3-triazole-4-carboxylic Acid], the IC50 worked out at 6 nM.

Consider `O=C(O)c1nn[nH]c1Oc1cccc(C#CCC2CC(F)(F)C2)c1` [Example 367, 5-(3-(3-(3,3-Difluorocyclobutyl)prop-1-ynyl)phenoxy)-1H-1,2,3-triazole-4-carboxylic Acid], for which the IC50 was found to be 9 nM.

With `O=C(O)c1nn[nH]c1Cc1ccc(C#CCC2CC2)cc1` [Example 364, 5-(4-(3-Cyclopropylprop-1-ynyl)benzyl)-1H-1,2,3-triazole-4-carboxylic Acid], the 50% inhibitory concentration (IC50) came to 94 nM.

As to `Cn1nccc1C#Cc1cccc(Oc2[nH]nnc2C(=O)O)c1` [Example 322, 5-(3-(2-(1-Methyl-1H-pyrazol-5-yl)ethynyl)phenoxy)-1H-1,2,3-triazole-4-carboxylic Acid], the IC50 is 4 nM.

On to `COc1cccc(C#Cc2ccc(Oc3[nH]nnc3C(=O)O)cc2)c1` [Example 281, 5-(4-(2-(3-Methoxyphenyl)ethynyl)phenoxy)-1H-1,2,3-triazole-4-carboxylic Acid], for which the IC50 is 3 nM.

For `CCOC(=O)c1nn[nH]c1Oc1cccc(C#CCC(C)(C)F)c1` [Example 377, Ethyl 5-(3-(4-fluoro-4-methylpent-1-ynyl)phenoxy)-1H-1,2,3-triazole-4-carboxylate], the IC50 was greater than 1000 nM.

For the compound `CCOC(=O)c1nn[nH]c1Oc1cccc(C#CCC(C)(C)C)c1` [Example 371, Ethyl 5-(3-(4,4-dimethylpent-1-ynyl)phenoxy)-1H-1,2,3-triazole-4-carboxylate], the IC50 is greater than 1000 nM.

Regarding `N#Cc1ccc(C#Cc2cc(F)cc(Oc3[nH]nnc3C(=O)O)c2)cc1` [Example 276, 4-(3-((4-Cyanophenyl)ethynyl)-5-fluorophenoxy)-1H-1,2,3-triazole-5-carboxylic Acid], the IC50 came out at 3 nM.

As to `O=C(O)c1nn[nH]c1Sc1ccc(C#CCC2CC2)cc1` [Example 355, 5-(4-(3-Cyclopropylprop-1-ynyl)phenylthio)-1H-1,2,3-triazole-4-carboxylic Acid], the IC50 turned out to be 6 nM.

Consider `CCOC(=O)c1nn[nH]c1S(=O)(=O)c1cccc(C#CCC(C)C)c1` [Example 375, Ethyl 5-(3-(4-methylpent-1-ynyl)phenylsulfonyl)-1H-1,2,3-triazole-4-carboxylate], for which the IC50 is greater than 1000 nM.

For `Cn1ccnc1C#Cc1cccc(Oc2[nH]nnc2C(=O)O)c1` [Example 334, 5-(3-(2-(1-Methyl-1H-imidazol-2-yl)ethynyl)phenoxy)-1H-1,2,3-triazole-4-carboxylic Acid], the IC50 was determined as 5 nM.

`COc1cccc(C#Cc2cccc(Oc3[nH]nnc3C(=O)O)c2)c1` [Example 287, 5-(3-(2-(3-Methoxyphenyl)ethynyl)phenoxy)-1H-1,2,3-triazole-4-carboxylic Acid]: the IC50 turned out to be 4 nM.

Turning to `COc1cc(C#Cc2ccc(Oc3[nH]nnc3C(=O)O)cc2)ccn1` [Example 283, 5-(4-(2-(2-Methoxypyridin-4-yl)ethynyl)phenoxy)-1H-1,2,3-triazole-4-carboxylic Acid], the IC50 stood at 3 nM.

Turning to `COc1ccc(Oc2[nH]nnc2C(=O)O)cc1C#Cc1ccccc1` [Example 264, 5-(4-Methoxy-3-(2-phenylethynyl)phenoxy)-1H-1,2,3-triazole-4-carboxylic Acid], the IC50 was 20 nM.

As for `O=C(O)c1nn[nH]c1Oc1cccc(C#CCc2ccccc2)c1` [Example 349, 5-(3-(3-Phenylprop-1-ynyl)phenoxy)-1H-1,2,3-triazole-4-carboxylic Acid], the IC50 was determined as 5 nM.

Turning to `Cc1cc(C#Cc2cccc(Oc3[nH]nnc3C(=O)O)c2)ccn1` [Example 296, 5-(3-(2-(2-Methylpyridin-4-yl)ethynyl)phenoxy)-1H-1,2,3-triazole-4-carboxylic Acid], the IC50 came to 1 nM.

Consider `CC(C)(C)CC#Cc1cccc(Oc2[nH]nnc2C(=O)O)c1` [Example 372, 5-(3-(4,4-Dimethylpent-1-ynyl)phenoxy)-1H-1,2,3-triazole-4-carboxylic Acid], for which the IC50 was greater than 1000 nM.

As for `CCOC(=O)c1nn[nH]c1Oc1cccc(C#CCC(C)C)c1` [Example 366, Ethyl 5-(3-(4-methylpent-1-ynyl)phenoxy)-1H-1,2,3-triazole-4-carboxylate], the IC50 was greater than 1000 nM.

On to `O=C(O)c1nn[nH]c1Nc1cccc(C#CCC2CC2)c1` [Example 363, 5-(3-(3-Cyclopropylprop-1-ynyl)phenylamino)-1H-1,2,3-triazole-4-carboxylic Acid], for which the IC50 is 110 nM.

With `N#Cc1cccc(C#Cc2cc(F)cc(Oc3[nH]nnc3C(=O)O)c2)c1` [Example 277, 4-(3-((3-Cyanophenyl)ethynyl)-5-fluorophenoxy)-1H-1,2,3-triazole-5-carboxylic Acid], the IC50 was 2 nM.

For the compound `O=C(O)c1nn[nH]c1Oc1cccc(C#Cc2cccc3[nH]ncc23)c1` [Example 328, 5-(3-(2-(1H-Indazol-4-yl)ethynyl)phenoxy)-1H-1,2,3-triazole-4-carboxylic Acid], the IC50 amounted to 1 nM.

Consider `Cn1cc(C#Cc2ccc(Oc3[nH]nnc3C(=O)O)cc2)ccc1=O` [Example 208, 4-(4-((1-Methyl-6-oxo-1,6-dihydropyridin-3-yl)ethynyl)phenoxy)-1H-1,2,3-triazole-5-carboxylic Acid], for which the IC50 was 2 nM.

Consider `CC(C)(F)CC#Cc1cccc(Oc2[nH]nnc2C(=O)O)c1` [Example 378, 5-(3-(4-Fluoro-4-methylpent-1-ynyl)phenoxy)-1H-1,2,3-triazole-4-carboxylic Acid], for which the IC50 was 40 nM.

As a reminder, the IC50 is the concentration that inhibits the measured activity by half.
